Source: US20260184726A1, “HETEROCYCLIC COMPOUNDS AS KINASE INHIBITORS, COMPOSITIONS, AND METHODS OF USE THEREOF” (JS INNOMED HOLDINGS LTD., priority 2022, published 2026)

What was measured:
[1] = tested on: BAF3 cells; assay: BAF3 Cell Proliferation Assay (CellTiter-Glo, without RET driven, IL-3); type: cell-based; details: Mus musculus; growth inhibition in BAF3 cells, 72 hours, with IL-3; read-out: BAF3 Cellular Activity
Description: Compounds disclosed herein were tested for the inhibition BAF3 cells proliferation without RET driven by CellTiter-Glo assay. In this assay, a complete media was prepared by adding 10% fetal bovine serum and 1 ng/ml IL-3 to RPMI-1640 medium (Life technology) for BAF3 cells. BAF3 cells were added to each of 88 wells of a 96 well plate at a seeding density of 2,000 cells/well/95 μL. The cells were allowed to attach to the plate by incubating at 37° C. for 24 hours. The compound was dissolved in DMSO (SIGMA). A solution of test compound was prepared in complete media by serial dilution to obtain the following concentrations: 200 μM, 66.7 μM, 22.2 μM, 7.4 μM, 2.5 μM, 0.82 μM, 0.27 μM, 0.091 μM and […]. The test compound solution (5 μL) was added to each of 80 cell-containing wells. The final concentrations of the compound were following: 10 μM, 3.33 μM, 1.11 μM, 0.37 μM, 0.12 μM, 0.041 μM, 0.014 μM, 0.0046 μM and 0.0015 μM. The final concentration of DMSO is 0.1%. To the 8 remaining cell-containing wells, only complete media (containing 0.1% DMSO) was added to form a control group in order to measure maximal proliferation. To the remaining 8 empty wells, complete media was added to for a vehicle control group in order to measure background. The plates were incubated at 37° C. for 72 hours. 50 μl of CellTiter-Glo® Reagent was added to each well. The contents were mixed for 2 minutes on an orbital shaker to induce cell lysis, and then were incubated at room temperature for 10 minutes to stabilize luminescent signal. Luminescence was recorded on Paradigm. Cell viability (CV %) was calculated relative to vehicle (DMSO) treated control wells. The IC50 was calculated using GraphPad Prism.

[2] = molecular target: T1, BAF3-KIF5B-RET cells (Homo sapiens, UniProt P07949); assay: BAF3-KIF5B-RET Cell Proliferation Assay (CellTiter-Glo); type: cell-based; details: growth inhibition, 72 hours; Table 2; read-out: BA/F3-KIF5B-RET Cellular activity
T1 construct: fused on or other part: P33176 (Kinesin-1 heavy chain)
Description: Compounds disclosed herein were tested for the inhibition of RET by a cancer cell proliferation assay commonly known as CellTiter-Glo assay. In this assay, a complete media was prepared by adding 10% fetal bovine serum to RPMI-1640 medium (Life technology) for RET-driven cancer cells (BAF3-FIF5B-RET, Ba/F3-KIF5B-RET-G810R, Ba/F3-TEL-RET-M918T or Ba/F3-KIF5B-RET-V804M). Individual RET-driven type of cells were added to each of 88 wells of a 96 well plate at a seeding density of 2,000 cells/well/95 μL. The cells were allowed to attach to the plate by incubating at 37° C. for 24 hours. The compound was dissolved in DMSO (SIGMA). A solution of test compound was prepared in complete media by serial dilution to obtain the following concentrations: 20 μM, 6.67 μM, 2.22 μM, 0.74 μM, 0.25 μM, 0.082 μM, 0.027 μM, 0.0091 μM and 0.0030 μM. The test compound solution (5 μL) was added to each of 80 cell-containing wells. The final concentrations of the compound were following: 1 μM, 0.33 μM, 0.11 μM, 0.037 μM, 0.012 μM, 0.0041 μM, 0.0014 μM, 0.00046 μM and 0.00015 μM. The final concentration of DMSO is 0.1%. To the 8 remaining cell-containing wells, only complete media (containing 0.1% DMSO) was added to form a control group in order to measure maximal proliferation. To the remaining 8 empty wells, complete media was added to for a vehicle control group in order to measure background. The plates were incubated at 37° C. for 72 hours. 50 μl of CellTiter-Glo® Reagent was added to each well. Mix contents for 2 minutes on an orbital shaker to induce cell lysis. Incubate at room temperature for 10 minutes to stabilize luminescent signal. Record luminescence on Paradigm. Cell viability (CV %) was calculated relative to vehicle (DMSO) treated control wells. The IC50 was calculated using GraphPad Prism.

T1 sequence (P07949 whole entry, change not shown, the tested form may be a part): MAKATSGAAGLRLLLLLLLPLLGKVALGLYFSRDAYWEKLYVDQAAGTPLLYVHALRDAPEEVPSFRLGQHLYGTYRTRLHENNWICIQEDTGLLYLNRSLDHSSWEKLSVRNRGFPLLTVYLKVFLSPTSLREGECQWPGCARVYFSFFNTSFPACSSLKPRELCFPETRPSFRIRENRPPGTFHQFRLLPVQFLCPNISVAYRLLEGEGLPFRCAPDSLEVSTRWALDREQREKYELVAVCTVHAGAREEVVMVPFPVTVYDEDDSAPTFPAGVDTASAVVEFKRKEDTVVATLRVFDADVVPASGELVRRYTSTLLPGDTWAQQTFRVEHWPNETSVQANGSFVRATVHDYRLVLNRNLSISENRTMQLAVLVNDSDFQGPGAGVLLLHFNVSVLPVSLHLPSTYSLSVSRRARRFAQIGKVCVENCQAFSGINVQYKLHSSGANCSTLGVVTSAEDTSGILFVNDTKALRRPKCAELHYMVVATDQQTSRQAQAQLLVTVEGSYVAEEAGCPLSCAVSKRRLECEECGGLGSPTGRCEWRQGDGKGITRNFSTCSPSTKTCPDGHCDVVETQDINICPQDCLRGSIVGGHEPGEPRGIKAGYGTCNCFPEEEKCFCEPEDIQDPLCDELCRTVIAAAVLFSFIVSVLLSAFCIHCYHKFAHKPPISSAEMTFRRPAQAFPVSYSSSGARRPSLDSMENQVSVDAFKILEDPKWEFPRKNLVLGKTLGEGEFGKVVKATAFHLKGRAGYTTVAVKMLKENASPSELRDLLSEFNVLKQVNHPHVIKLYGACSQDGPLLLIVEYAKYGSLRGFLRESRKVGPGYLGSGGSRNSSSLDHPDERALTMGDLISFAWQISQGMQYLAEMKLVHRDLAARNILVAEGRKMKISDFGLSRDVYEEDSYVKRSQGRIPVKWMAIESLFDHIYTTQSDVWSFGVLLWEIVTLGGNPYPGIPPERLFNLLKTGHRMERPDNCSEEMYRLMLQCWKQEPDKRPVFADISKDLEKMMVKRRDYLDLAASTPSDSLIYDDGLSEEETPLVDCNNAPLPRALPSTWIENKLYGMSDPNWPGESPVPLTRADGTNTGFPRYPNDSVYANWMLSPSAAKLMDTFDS

Row | SMILES | IC50 [1] [nM] | GI50 [2] [nM]
1 | COc1ccc(CN2C3CC2CN(c2ccc(-c4cc(-c5cnc(C(C)(C)O)cn5)cn5ncc(C#N)c45)cn2)C3)cn1 [Example 15, 6-(5-(2-hydroxypropan-2-yl)pyrazin-2-yl)-4-(6-(6-((6-methoxypyridin-3-yl)methyl)-3,6-diazabicyclo[3.1.1]heptan-3-yl)pyridin-3-yl)pyrazolo[1,5-a]pyridine-3-carbonitrile] | 2600 | 3.9
2 | COc1ccc(C(=O)N2C3CC2CN(c2ccc(-c4cc(-c5ccc(C(C)(C)O)cn5)cn5ncc(C#N)c45)cn2)C3)cn1 [Example 25, 6-(5-(2-hydroxypropan-2-yl)pyridin-2-yl)-4-(6-(6-(6-methoxynicotinoyl)-3,6-diazabicyclo[3.1.1]heptan-3-yl)pyridin-3-yl)pyrazolo[1,5-a]pyridine-3-carbonitrile] | 6650 | 2.7
3 | COc1ccc(CN2C3CC2CN(c2ccc(-c4cc(-c5ccc(C(C)(C)O)nn5)cn5ncc(C#N)c45)cn2)C3)cn1 [Example 19, 6-(6-(2-hydroxypropan-2-yl)pyridazin-3-yl)-4-(6-(6-((6-methoxypyridin-3-yl)methyl)-3,6-diazabicyclo[3.1.1]heptan-3-yl)pyridin-3-yl)pyrazolo[1,5-a]pyridine-3-carbonitrile] | 1260 | 1.7
4 | COc1ccc(CN2C3CC2CN(c2ccc(-c4cc(-c5cc(C(C)(C)NC(C)=O)n(C)n5)cn5ncc(C#N)c45)cn2)C3)cn1 [Example 28, N-(2-(3-(3-cyano-4-(6-(6-((6-methoxypyridin-3-yl)methyl)-3,6-diazabicyclo[3.1.1]heptan-3-yl)pyridin-3-yl)pyrazolo[1,5-a]pyridin-6-yl)-1-methyl-1H-pyrazol-5-yl)propan-2-yl)acetamide] | 2330 | 4
5 | COc1ccc(CN2C3CC2CN(c2ccc(-c4cc(-c5ccc(C(C)(C)N)cn5)cn5ncc(C#N)c45)cn2)C3)cn1 [Example 16, 6-(5-(2-aminopropan-2-yl)pyridin-2-yl)-4-(6-(6-((6-methoxypyridin-3-yl)methyl)-3,6-diazabicyclo[3.1.1]heptan-3-yl)pyridin-3-yl)pyrazolo[1,5-a]pyridine-3-carbonitrile] | 1080 | 2.2
6 | COc1ccc(CN2C3CC2CN(c2ccc(-c4cc(-c5ccc(OCC(C)(C)O)nc5)cn5ncc(C#N)c45)cn2)C3)cn1 [Example 33, 6-(6-(2-hydroxy-2-methylpropoxy)pyridin-3-yl)-4-(6-(6-((6-methoxypyridin-3-yl)methyl)-3,6-diazabicyclo[3.1.1]heptan-3-yl)pyridin-3-yl)pyrazolo[1,5-a]pyridine-3-carbonitrile] | 2580 | 5.1
7 | CC(C)(O)c1ccc(-c2cc(-c3cnc(N4C[C@@H]5C[C@@](C)(NC(=O)c6ncccc6Cl)C[C@@H]5C4)cn3)c3c(C#N)cnn3c2)nc1 [Example 6, 3-chloro-N-((3aR,5s,6aS)-2-(5-(3-cyano-6-(5-(2-hydroxypropan-2-yl)pyridin-2-yl)pyrazolo[1,5-a]pyridin-4-yl)pyrazin-2-yl)-5-methyloctahydrocyclopenta[c]pyrrol-5-yl)picolinamide] | 38.6 | 3.5
8 | COc1ccc(CN2C3CC2CN(c2ccc(-c4cc(-c5cc(C(C)(C)O)nn5C)cn5ncc(C#N)c45)cn2)C3)cn1 [Example 26, 6-(3-(2-hydroxypropan-2-yl)-1-methyl-1H-pyrazol-5-yl)-4-(6-(6-((6-methoxypyridin-3-yl)methyl)-3,6-diazabicyclo[3.1.1]heptan-3-yl)pyridin-3-yl)pyrazolo[1,5-a]pyridine-3-carbonitrile] | > 10000 | 46.8
9 | COc1ccc(CN2C3CC2CN(c2ccc(-c4cc(-c5cncc(C(C)(C)O)c5)cn5ncc(C#N)c45)cn2)C3)cn1 [Example 7, 6-(5-(2-hydroxypropan-2-yl)pyridin-3-yl)-4-(6-(6-((6-methoxypyridin-3-yl)methyl)-3,6-diazabicyclo[3.1.1]heptan-3-yl)pyridin-3-yl)pyrazolo[1,5-a]pyridine-3-carbonitrile] | > 10000 | 48.1
10 | COc1ccc(C(=O)NC23CC4CC(C2)N(c2cnc(-c5cc(-c6ccc(C(C)(C)O)cn6)cn6ncc(C#N)c56)cn2)C(C4)C3)cn1 [Example 2, N-((1R,3S,5s,7s)-2-(5-(3-cyano-6-(5-(2-hydroxypropan-2-yl)pyridin-2-yl)pyrazolo[1,5-a]pyridin-4-yl)pyrazin-2-yl)-2-azaadamantan-5-yl)-6-methoxynicotinamide] | 362 | 8.9
11 | COc1ccc(CN2C3CC2CN(c2cnc(-c4cc(-c5ccc(C(C)(C)O)cn5)cn5ncc(C#N)c45)cn2)C3)cn1 [Example 1, 6-(5-(2-hydroxypropan-2-yl)pyridin-2-yl)-4-(5-(6-((6-methoxypyridin-3-yl)methyl)-3,6-diazabicyclo[3.1.1]heptan-3-yl)pyrazin-2-yl)pyrazolo[1,5-a]pyridine-3-carbonitrile] | 1020 | 1.8
12 | COc1ccc(CN2C3CC2CN(c2cnc(-c4cc(-c5ccc(C(C)(C)O)nn5)cn5ncc(C#N)c45)cn2)C3)cn1 [Example 20, 6-(6-(2-hydroxypropan-2-yl)pyridazin-3-yl)-4-(5-(6-((6-methoxypyridin-3-yl)methyl)-3,6-diazabicyclo[3.1.1]heptan-3-yl)pyrazin-2-yl)pyrazolo[1,5-a]pyridine-3-carbonitrile] | 1480 | 6.7
13 | COc1ccc(CN2C3CC2CN(c2ccc(-c4cc(-c5ccc(C(C)(C)N)nc5)cn5ncc(C#N)c45)cn2)C3)cn1 [Example 14, 6-(6-(2-aminopropan-2-yl)pyridin-3-yl)-4-(6-(6-((6-methoxypyridin-3-yl)methyl)-3,6-diazabicyclo[3.1.1]heptan-3-yl)pyridin-3-yl)pyrazolo[1,5-a]pyridine-3-carbonitrile] | 1000 | 2.8
14 | COc1ccc(CN2C3CC2CN(c2ccc(-c4cc(-c5ccc(C(C)(C)O)s5)cn5ncc(C#N)c45)cn2)C3)cn1 [Example 27, 6-(5-(2-hydroxypropan-2-yl)thiophen-2-yl)-4-(6-(6-((6-methoxypyridin-3-yl)methyl)-3,6-diazabicyclo[3.1.1]heptan-3-yl)pyridin-3-yl)pyrazolo[1,5-a]pyridine-3-carbonitrile] | 913 | 0.7
